Assay [1] has as its target T1, FGF-R1C ECD (Homo sapiens, UniProt P11362).
T1 sequence (P11362 22-376 limits assumed): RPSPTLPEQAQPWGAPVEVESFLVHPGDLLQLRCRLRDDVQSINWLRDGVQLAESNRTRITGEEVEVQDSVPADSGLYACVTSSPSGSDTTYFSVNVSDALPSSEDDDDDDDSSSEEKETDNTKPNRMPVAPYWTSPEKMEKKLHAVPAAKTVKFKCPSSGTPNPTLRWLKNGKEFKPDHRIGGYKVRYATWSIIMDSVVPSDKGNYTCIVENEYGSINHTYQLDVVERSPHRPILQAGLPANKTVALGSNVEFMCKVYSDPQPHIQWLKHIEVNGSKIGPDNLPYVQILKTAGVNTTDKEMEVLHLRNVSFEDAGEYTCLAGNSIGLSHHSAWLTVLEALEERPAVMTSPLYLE
The assay can be described thus: biochemical. Format: binding. The arrangement: DNA constructs for the extracellular domain (ECD) of human FGF-; HPC4 (C); made in house; host or cells: HEK 293-6E. Summed up:
(§1)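 Biotinylated FGF-R ECD on streptavidin biosensors was dipped into ~1 μM crude peptide in PBS pH7.4 with 0.05% Tween-20 and 0.01% BSA for association, then into buffer for dissociation, and followed by BLI. Fitted KD values were adjusted for peptide concentration measured by UPLC-CAD.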

The target of assay [2] is T2, FGF-R3C ECD (Homo sapiens, UniProt P22607).
T2 sequence (P22607 23-375 limits assumed): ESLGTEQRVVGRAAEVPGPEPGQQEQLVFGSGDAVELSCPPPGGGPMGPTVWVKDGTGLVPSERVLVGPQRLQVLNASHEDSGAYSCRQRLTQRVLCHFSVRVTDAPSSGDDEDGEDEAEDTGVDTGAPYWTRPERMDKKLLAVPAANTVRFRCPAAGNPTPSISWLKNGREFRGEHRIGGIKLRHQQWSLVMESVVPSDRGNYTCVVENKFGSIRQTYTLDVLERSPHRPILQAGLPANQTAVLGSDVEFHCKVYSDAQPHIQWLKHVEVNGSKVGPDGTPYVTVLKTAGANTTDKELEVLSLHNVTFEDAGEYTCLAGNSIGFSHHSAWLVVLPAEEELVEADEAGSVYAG
The assay can be described thus: biochemical. Format: binding. The arrangement: DNA constructs for the extracellular domain (ECD) of human FGF-; HPC4 (C); made in house; host or cells: HEK 293-6E. The essentials:
as §1

The target in assay [3] is T3, FGF-R4 ECD (Homo sapiens, UniProt P22455).
T3 construct: DNA constructs for the extracellular domain (ECD) of human FGF-; HPC4 (C); made in house; host or cells: HEK 293-6E
T3 sequence (P22455 22-369 limits assumed): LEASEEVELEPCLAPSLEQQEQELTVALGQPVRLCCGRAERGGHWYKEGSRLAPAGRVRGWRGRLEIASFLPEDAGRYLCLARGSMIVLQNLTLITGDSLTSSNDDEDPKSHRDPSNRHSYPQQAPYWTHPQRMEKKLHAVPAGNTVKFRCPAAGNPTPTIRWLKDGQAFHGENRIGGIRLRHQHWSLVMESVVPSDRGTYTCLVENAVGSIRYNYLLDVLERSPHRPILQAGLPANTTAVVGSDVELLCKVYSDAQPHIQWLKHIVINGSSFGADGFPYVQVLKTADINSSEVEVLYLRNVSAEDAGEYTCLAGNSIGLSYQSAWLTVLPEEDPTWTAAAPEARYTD
The assay can be described thus: single concentration BLI of crude peptides. Format: binding. Particulars: crude NNK peptides, single concentration BLI (Table S3); read-out: KD (4). The essentials:
(§2)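 Streptavidin biosensors carrying biotinylated FGF receptor ECD were immersed in peptide (~1 μM for crude single-point runs, a concentration series for purified peptides) and then in peptide-free buffer. KD was obtained by fitting the BLI association and dissociation curves.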

The target in assay [4] is T4, FGFR4/KLB (Fc-fused human FGF-R4 with beta-klotho) (Homo sapiens, UniProt P22455).
T4 sequence (P22455 22-369 limits assumed): T3 sequence (P22455 22-369 limits assumed)
The assay can be described thus: AlphaScreen FGF21 competitive binding assay. In general terms: Bead proximity is the source of the signal in Alpha formats.
Procedure: Alphascreen binding assay
(§3) The competitive binding assay was carried out according to the methods detailed in Hansen. et al using
(§4) AlphaScreen.3 All reagents and samples were prepared in assay buffer: 40mM Hepes, 140mM NaCl, 1mM
(§5) CaCl2, 0,05% Tween20, pH=7.5, 0.1% BSA. In brief, recombinant human beta-klotho (R&D Systems) was
(§6) preincubated for 60 min with the ectodomain, either Fc-fused human FGF-R1alpha(IIIc), FGF-R3alpha(IIIc)
(§7) or FGF-R4 (R&D Systems), and the mixture was added to the test peptides in OptiPlate™ (PerkinElmer).
(§8) Biotinylated FGF21 and heparin were further added to each well. AlphaScreen bead mix (1:1 mix of Protein
(§9) A acceptor beads/ streptavidin-coated donor beads, PerkinElmer) were added to each well incubated
(§10) overnight at RT in the dark, and measured on a plate reader (Envision). Assays were carried out in triplicates
(§11) with concentrations ranging from 3, 10, 30, 100, 300 ,1000 and 3000 nM of peptide. No peptide control
(§12) (media only) was used as a negative control, and unlabeled FGF21 and FGF1 as positive control.
(§13) competing with biotinylated natural FGF21 ligand.

Assay [5] concerns the target T5, FGFR1c/KLB (Fc-fused human FGF-R1alpha(IIIc) with beta-klotho) (Homo sapiens, UniProt P11362).
T5 sequence (P11362 22-376 limits assumed): T1 sequence (P11362 22-376 limits assumed)
Nature of the assay: AlphaScreen FGF21 competitive binding assay.
Procedure: Alphascreen binding assay
as §3, §4, §5, §6, §7, §8, §9, §10, §11, §12, §13

The target in assay [6] is T6, FGFR3c/BKL (Fc-fused human FGF-R3alpha(IIIc) with beta-klotho) (Homo sapiens, UniProt P22607).
T6 sequence (P22607 23-375 limits assumed): T2 sequence (P22607 23-375 limits assumed)
Nature of the assay: AlphaScreen FGF21 competitive binding assay.

Assay [7] addresses T1, FGF-R1C ECD. Nature of the assay: biochemical. The essentials: as §2
Assay [8] deals with T2, FGF-R3C ECD. The assay can be described thus: biochemical. The essentials: as §2
Assay [9] addresses T3, FGF-R4 ECD. The assay can be described thus: multi-concentration BLI of purified peptides. Particulars: purified NNK library peptides. Format: binding. The essentials: as §2

Structures are written as SMILES. Like-named read-outs stand apart in the source and are kept apart here.

The term Kd denotes the free concentration of one partner at which half of the binding sites on the other are occupied at equilibrium, for simple one-to-one binding. Broadly, the IC50 is the concentration needed to halve the response being measured. In the case of `CC[C@H](C)[C@@H]1NC(=O)[C@@H](NC(=O)[C@H](CCSC)NC(C)=O)CSSC[C@@H](C(=O)NCC(=O)N[C@@H](CO)C(=O)NCC(=O)N[C@@H](CO)C(=O)N[C@@H](CC(=O)O)C(=O)N[C@@H](Cc2ccc(O)cc2)C(=O)N[C@@H](CCCCN)C(=O)N[C@@H](CC(=O)O)C(=O)N[C@@H](CC(=O)O)C(=O)N[C@@H](CC(=O)O)C(=O)N[C@@H](CC(=O)O)C(=O)N[C@@H](CCCCN)C(N)=O)NC(=O)[C@H](C(C)C)NC(=O)[C@H](C(C)C)NC(=O)[C@H](Cc2c[nH]c3ccccc23)NC(=O)[C@H](Cc2ccccc2)NC(=O)[C@H](CC(=O)O)NC(=O)[C@H](CO)NC(=O)[C@H](CC(C)C)NC(=O)[C@H](CCCNC(=N)N)NC(=O)[C@H](Cc2ccc(O)cc2)NC1=O` [1C.6], the equilibrium dissociation constant (Kd) stood at 19 nM on FGF-R1C ECD [1]; 12 nM on FGF-R3C ECD [2]; 47 nM at FGF-R4 ECD [3]; 53 nM at FGF-R1C ECD [7]; 361 nM on FGF-R3C ECD [8]; 70 nM on FGF-R4 ECD [9]. Also, the IC50 in [4] was 60 nM; in assay [5] it was 29 nM; in assay [6] it was 18 nM.

In the case of `CC[C@H](C)[C@@H]1NC(=O)[C@@H](NC(=O)[C@H](CCSC)NC(C)=O)CSSC[C@@H](C(=O)NCC(=O)N[C@@H](CO)C(=O)NCC(=O)N[C@@H](CO)C(=O)N[C@@H](CC(=O)O)C(=O)N[C@@H](Cc2ccc(O)cc2)C(=O)N[C@@H](CCCCN)C(=O)N[C@@H](CC(=O)O)C(=O)N[C@@H](CC(=O)O)C(=O)N[C@@H](CC(=O)O)C(=O)N[C@@H](CC(=O)O)C(=O)N[C@@H](CCCCN)C(N)=O)NC(=O)[C@H](CCC(=O)O)NC(=O)[C@H](C(C)C)NC(=O)[C@H](Cc2c[nH]c3ccccc23)NC(=O)[C@H](Cc2ccccc2)NC(=O)[C@H](CC(=O)O)NC(=O)[C@H](CO)NC(=O)[C@H](CC(C)C)NC(=O)[C@H](CCCNC(=N)N)NC(=O)[C@H](Cc2ccc(O)cc2)NC1=O` [1C.7], the Kd at FGF-R1C ECD [1] is 47 nM; on FGF-R3C ECD [2], 281 nM; at FGF-R4 ECD [3] it was 45 nM; on FGF-R1C ECD [7], greater than 1000 nM; on FGF-R3C ECD [8], greater than 1000 nM; at FGF-R4 ECD [9] it was greater than 1000 nM. In addition, the IC50 in assay [4] was 406 nM; in assay [5], 473 nM; in [6] it was 631 nM.

For `CC[C@H](C)[C@@H]1NC(=O)[C@@H]2CCCN2C(=O)[C@H](Cc2ccccc2)NC(=O)[C@@H]2CCCN2C(=O)[C@H](Cc2c[nH]c3ccccc23)NC(=O)[C@@H]2CCCN2C(=O)[C@H](Cc2ccccc2)NC(=O)[C@H](CCCCN)NC(=O)[C@H]([C@@H](C)O)NC(=O)[C@@H](NC(=O)[C@@H](N)CCSC)CSSC[C@@H](C(=O)NCC(=O)N[C@@H](CO)C(=O)NCC(=O)N[C@@H](CO)C(=O)N[C@@H](CC(=O)O)C(=O)N[C@@H](Cc2ccc(O)cc2)C(=O)N[C@@H](CCCCN)C(=O)N[C@@H](CC(=O)O)C(=O)N[C@@H](CC(=O)O)C(=O)N[C@@H](CC(=O)O)C(=O)N[C@@H](CC(=O)O)C(=O)N[C@@H](CCCCN)C(N)=O)NC(=O)[C@H](C)NC(=O)[C@H](Cc2c[nH]c3ccccc23)NC(=O)[C@H](Cc2ccccc2)NC1=O` [1C.8], the Kd at FGF-R1C ECD [1] is 155 nM; on FGF-R3C ECD [2], 47 nM; at FGF-R4 ECD [3], 70 nM; on FGF-R1C ECD [7] it was 323 nM; at FGF-R3C ECD [8], greater than 1000 nM; on FGF-R4 ECD [9], 464 nM. The IC50 was 431 nM in [4], 112 nM in [5] and greater than 1000 nM in [6].

In the case of `CC[C@H](C)[C@@H]1NC(=O)[C@@H](NC(=O)[C@@H](N)CCSC)CSSC[C@@H](C(=O)NCC(=O)N[C@@H](CO)C(=O)NCC(=O)N[C@@H](CO)C(=O)N[C@@H](CC(=O)O)C(=O)N[C@@H](Cc2ccc(O)cc2)C(=O)N[C@@H](CCCCN)C(=O)N[C@@H](CC(=O)O)C(=O)N[C@@H](CC(=O)O)C(=O)N[C@@H](CC(=O)O)C(=O)N[C@@H](CC(=O)O)C(=O)N[C@@H](CCCCN)C(N)=O)NC(=O)[C@H](CC(C)C)NC(=O)[C@H](Cc2c[nH]c3ccccc23)NC(=O)[C@H](Cc2ccccc2)NC(=O)[C@H](CC(C)C)NC(=O)[C@@H]2CCCN2C(=O)[C@H](CCC(N)=O)NC(=O)[C@H](CCCNC(=N)N)NC(=O)[C@H](C)NC(=O)[C@@H]2CCCN2C(=O)[C@H](Cc2c[nH]c3ccccc23)NC(=O)[C@H](CCCNC(=N)N)NC1=O` [1C.9], the dissociation constant Kd at FGF-R1C ECD [1] is 19 nM; on FGF-R3C ECD [2], 112 nM; at FGF-R4 ECD [3], 82 nM; on FGF-R1C ECD [7] it was 1 nM; on FGF-R3C ECD [8], 47 nM; on FGF-R4 ECD [9] it was 82 nM. The half-maximal inhibitory concentration (IC50) was 67 nM in [4], 17 nM in [5] and 15 nM in assay [6].

On to `CSCC[C@H](N)C(=O)N[C@H]1CSSC[C@@H](C(=O)NCC(=O)N[C@@H](CO)C(=O)NCC(=O)N[C@@H](CO)C(=O)N[C@@H](CC(=O)O)C(=O)N[C@@H](Cc2ccc(O)cc2)C(=O)N[C@@H](CCCCN)C(=O)N[C@@H](CC(=O)O)C(=O)N[C@@H](CC(=O)O)C(=O)N[C@@H](CC(=O)O)C(=O)N[C@@H](CC(=O)O)C(=O)N[C@@H](CCCCN)C(N)=O)NC(=O)[C@H](Cc2ccccc2)NC(=O)[C@@H]2CCCN2C(=O)[C@H]([C@@H](C)O)NC(=O)[C@H](CC(C)C)NC(=O)[C@H](Cc2c[nH]cn2)NC(=O)[C@H](Cc2c[nH]cn2)NC(=O)[C@H](Cc2ccccc2)NC(=O)[C@H](CC(C)C)NC(=O)[C@H](CCCNC(=N)N)NC(=O)[C@H](Cc2c[nH]c3ccccc23)NC(=O)[C@H](CCCNC(=N)N)NC(=O)[C@H](Cc2ccccc2)NC1=O` [1C.10], for which the Kd at FGF-R1C ECD [1] was 50 nM; on FGF-R3C ECD [2], greater than 10000 nM; at FGF-R4 ECD [3] it was 79 nM; on FGF-R1C ECD [7], 101 nM; at FGF-R3C ECD [8], greater than 1000 nM; at FGF-R4 ECD [9] it was 73 nM. The IC50 in assay [4] is 283 nM; in assay [5] it was 84 nM; in assay [6], greater than 1000 nM.

On to `CC[C@H](C)[C@@H]1NC(=O)[C@@H](NC(=O)[C@H](CCSC)NC(C)=O)CSSC[C@@H](C(=O)NCC(=O)N[C@@H](CO)C(=O)NCC(=O)N[C@@H](CO)C(=O)N[C@@H](CC(=O)O)C(=O)N[C@@H](Cc2ccc(O)cc2)C(=O)N[C@@H](CCCCN)C(=O)N[C@@H](CC(=O)O)C(=O)N[C@@H](CC(=O)O)C(=O)N[C@@H](CC(=O)O)C(=O)N[C@@H](CC(=O)O)C(=O)N[C@@H](CCCCN)C(N)=O)NC(=O)[C@H](Cc2ccccc2)NC(=O)[C@H]([C@@H](C)CC)NC(=O)[C@H](Cc2ccccc2)NC(=O)[C@@H]2CCCN2C(=O)[C@H](CC(C)C)NC(=O)[C@H](Cc2ccccc2)NC(=O)[C@H](CC(C)C)NC(=O)[C@H](CC(=O)O)NC(=O)[C@H](Cc2ccccc2)NC1=O` [3C.1], for which the Kd at FGF-R1C ECD [1] is greater than 10000 nM; at FGF-R3C ECD [2], 64 nM; at FGF-R4 ECD [3] it was greater than 10000 nM; on FGF-R1C ECD [7] it was greater than 1000 nM; at FGF-R3C ECD [8], 95 nM; at FGF-R4 ECD [9], greater than 1000 nM. The IC50 in assay [4] was greater than 1000 nM; in assay [5], greater than 1000 nM; in [6] it was 204 nM.

Values taken from publication PMC10763615, “Identification and engineering of potent cyclic peptides with selective or promiscuous binding through biochemical profiling and bioinformatic data analysis” (RSC Chemical Biology, 2023).
